Reference: patent publication US20180333401A1, “METHODS OF TREATING LIVER DISEASE” (Gilead Sciences, Inc., priority 2017, published 2018)
Marks after values point to notes of the source that are not given here.

Tests used:
Format in all cases: in vivo, human
[1] = tested on: liver stiffness; experiment: Liver stiffness by MRE, proof of concept study in subjects with NASH; details: W12, orally QD for 12 weeks
Protocol: (§1) 70 subjects with NASH diagnosed by a hepatic proton density fat fraction (PDFF) ≥10% and liver stiffness ≥2.88 kPa by MRE, or liver biopsy consistent with NASH and stage 2-3 fibrosis were enrolled. Successive cohorts received monotherapy with Formula (II) 18 mg, Formula (VII) 20 mg, or Formula (V) 30 mg (n=10/cohort), or combination therapy with Formula (II)+Formula (VII) (18/20 mg) or Formula (II)+Formula (V) (18/30 mg) (n=20/cohort) orally QD for 12 weeks. Centrally-read PDFF and MRE, and serum fibrosis markers were measured at baseline (BL), W4 and W12. Deuterated water was administered to measure fractional synthesis of lipids (de novo lipogenesis [DNL]) and fibrosis-related markers (data are pending).

[2] = tested on: ALT, GGT; experiment: Liver biochemistry (ALT, GGT), proof of concept study in subjects with NASH; details: for ALT, median relative (%) change from BL / GGT, median relative (%) change from BL: W12, orally QD for 12 weeks
Protocol: as §1

[3] = Safety (AEs), proof of concept study in subjects with NASH; details: over 12 weeks, orally QD
Protocol: as §1

[4] = tested on: TIMP-1, PIII-NP; experiment: Serum fibrosis markers (TIMP-1, PIII-NP), proof of concept study in subjects with NASH; details: for PIII-NP, median relative (%) change from BL / TIMP-1, median relative (%) change from BL: serum, W12, orally QD for 12 weeks
Protocol: as §1

[5] = tested on: hepatic proton density fat fraction (PDFF); experiment: Hepatic fat by MRI-PDFF, proof of concept study in subjects with NASH; details: for MRI-PDFF, median relative (%) change from BL / ≥30% reduction in MRI-PDFF, % of subjects: W12, orally QD for 12 weeks; for PDFF compared with BL (in words): 12 weeks
Protocol: as §1

SMILES | MRE, median relative (%) change from BL [1] | ALT, median relative (%) change from BL [2] | GGT, median relative (%) change from BL [2] | Grade 2 or higher AE, % of subjects [3] | PIII-NP, median relative (%) change from BL [4] | TIMP-1, median relative (%) change from BL [4] | MRI-PDFF, median relative (%) change from BL [5] | ≥30% reduction in MRI-PDFF, % of subjects [5] | ALT compared with BL (in words) ([2]; 12 weeks) | GGT compared with BL (in words) ([2]; 12 weeks) | PDFF compared with BL (in words) [5] | PIII-NP compared with BL (in words) ([4]; 12 weeks) | TIMP-1 compared with BL (in words) ([4]; 12 weeks)
Cc1cc(F)c(C(=O)Nc2cccc(-c3nncn3C(C)C)n2)cc1-n1cnc(C2CC2)c1 [Formula (II)] | −8.6% | −1.2% | −4.4% | 40% | −8.7% | 2.6% | 7.1% | 10% |  |  |  |  | 
O=C(O)c1ccnc(N2CC(O)(c3ccc(OCc4c(-c5c(Cl)cccc5Cl)noc4C4CC4)cc3Cl)C2)c1 [Formula (V)] | −8.3% | −29.7% | −19.3* % | 40% | 8.8% | 6.6* % | −15.6* % | 0% | reduced | reduced | reduced |  | 
Cc1cc(F)c(C(=O)Nc2cccc(-c3nncn3[C@@H](C)CF)n2)cc1-n1cnc(C2CC2)c1 [Formula (VII)] | −8.9% | −33.5% | −1.6% | 40% | −11.9% | −11.6* % | −42.7* % | 70% | non-significant reductions |  | significant improvements | non-significant reductions | significant improvements
